{"source": "patent US11542298B2", "about": "“Hydroxysteroid compounds, their intermediates, process of preparation, composition and uses thereof” (Epirium Bio Inc., priority 2014, dated 2023)", "key": {"AMP KINASE": {"tested_on": "AMP KINASE", "assay": "AMP KINASE activation, cell based ELISA in Hepatoma (Hep 2) liver cells", "conditions": "0.1 nM, 30 m, over baseline of 100 (DMSO control)", "description": "AMP KINASE activation potential of the compounds was evaluated using cell based ELISA·Hepatoma (Hep 2) liver cells were maintained in a T 75 culture flask-containing 25 mM DMEM+10% fetal calf serum. The cells were maintained in a T 75 culture flask-containing medium (DMEM+10% fetal calf serum). On reaching a confluence of 70 to 80%, the cells were seeded in a 96 well plate at a density of 40,000 cells per well in 25 mM DMEM+10% FCS medium. The plates were then incubated at 37° C. with 5% CO2 for 24 hours. Various concentrations of drugs were prepared in DMSO and diluted to required concentration with the medium and incubated at 37° C. with 5% CO2 for 30 min and 1 h for Epicatechin analogs and 11-BHP analogs respectively. Metformin was used as positive control·Cells were fixed with 4% formaldehyde for 30 minutes at room temperature and washed three times with PBS containing 0.1% Triton X-100. Endogenous peroxidase was quenched with 1% H2O2 in PBS-T (0.1% Tween 20) for 30 minutes and washed three times in PBS-T. Cells were blocked with 1% BSA in PBS-T for 1 hour. The cells were incubated with 1:1000 dilution primary antibody (Phospho-AMPKα ([…]) Rabbit mAb, Cell Signaling in PBS-T containing 5% BSA at 4° C. overnight. The cells were then washed three times with PBS-T for 5 minutes and incubated with 1:1000 dilution secondary antibody (Anti-rabbit IgG, HRP-linked Antibody, Cell Signaling) in PBS-T with 1% BSA for 1 hour at RT·Cells were washed three times with PBS-T for 5 minutes The cells were incubated with 100 μl TMB substrate solution for 30 minutes and the reaction was stopped with 100 μl of 2N H2SO4. Then the plate was read at 450 nm using ELISA plate reader and absorbance recorded. % activity was calculated using DMSO control as 100%."}, "[1]": {"tested_on": "mitochondrial oxidative phosphorylation complex I", "assay": "Western blot of mitochondrial oxidative phosphorylation complex I protein levels in human coronary artery endothelial cells", "type": "cell-based", "conditions": "HCAEC, 48 h, FIG. 1a", "description": "Cells were grown in Dulbecco's modified Eagle's media supplemented with fetal bovine serum (10%) to ˜90% confluence. Cells were treated with either vehicle (water) or incremental doses of the agent (dissolved in water) for a total of 48 h (treatment was repeated at the 24 h time point). At the end of the experiment, cells were lysed in Western blot sample buffer. A fixed amount of protein (25 micrograms) was loaded onto a polyacrylamide gel and run for 1 h to allow for the electrophoretic separation of proteins. The gel was then transferred onto a polyvinyl membrane for incubation with blocking buffer prior to exposure to the 1ry antibody (anti-human complex […]. Following a 1 h incubation at room temperature the membrane was washed and then exposed to the 2ry antibody for 1 h. after a second set of washes the membrane was incubated with an enhanced-chemiluminescence kit solution followed by exposure to X-ray film. The image obtain was used to quantitative changes in complex I protein levels as a function of compound dose. To normalize for loading differences the membrane was re-incubated (as above) with the subunit 6 ribosomal protein (S6RP) and exposed to X-ray film. Changes in values for complex I levels are normalized to differences in S6RP levels. All data are normalized to the values noted for cells treated with vehicle only (=100%). The results are presented at FIG. 1 a."}, "AMPKinase": {"tested_on": "AMPKinase", "assay": "AMPKinase activation in HepG2 cells (Western blot of phosphorylated AMPK and ACC)", "type": "cell-based", "conditions": "HepG2, 1 hour, FIG. 2a", "source_text": "OHP effects on AMPKinase activation in HepG2 cells. […] (RNeasy kit, QIAGEN). OHP effects on APPL1 nuclear translocation. […] The results are presented at FIGS. 2a and 2b."}, "HepG2 cells [2]": {"tested_on": "HepG2 cells", "assay": "Mitochondrial DNA content in HepG2 cells", "type": "cell-based", "conditions": "HepG2, 24 hours, FIG. 3b", "source_text": "The results are depicted at FIGS. 3a and 3b."}, "HepG2 cells [3]": {"tested_on": "HepG2 cells", "assay": "Intracellular glucose production (de novo gluconeogenesis) in HepG2 cells", "type": "cell-based", "conditions": "HepG2, FIG. 5", "description": "(§1) HepG2 cells were exposed to serum-free media for 3 hours and then exposed to gluconeogenic factors (lactate and pyruvate 10:1 ratio) and stimulators (cAMP) in the presence of increasing concentrations of OHP (in nM). Intracellular glucose production—a marker of de novo gluconeogenesis—was determined enzymatically (biovision glucose determination kit), as well as intracellular beta-hydroxybutyrate levels (a marker of fat oxidation) and triglycerides (substrate for fat oxidation). […] The results are depicted at FIG. 5."}, "HepG2 cells [4]": {"tested_on": "HepG2 cells", "assay": "Fat oxidation (intracellular beta-hydroxybutyrate, triglycerides) in HepG2 cells", "type": "cell-based", "conditions": "HepG2, FIG. 5", "description": "as §1"}, "[5]": {"conditions": "listed as 11β-hydroxypregnenolone"}}, "data": [{"smiles": "CC(=O)C1CC[C@H]2[C@@H]3CC=C4CC(O)CC[C@]4(C)[C@H]3[C@@H](O)C[C@]12C", "note": "(stereo partly drawn) [Compound 1039, 1-((8S,9S,10R,11S,13S,14S)-3,11-dihydroxy-10,13-dimethyl-2,3,4,- 7,8,9,10,11,12,13,14,15,16,17-tetradecahydro-1H-cyclopenta[a]-phenanthren-17-yl)ethanone]", "values": [{"measurement": "% pAMPK", "setting": "AMP KINASE", "value": 109, "unit": "%"}, {"measurement": "mitochondrial biogenesis (complex I protein levels)", "setting": "[1]", "value": "causes mitochondrial biogenesis"}, {"measurement": "mitochondrial biogenesis (complex I protein levels)", "setting": "[1]; [5]", "value": "mitochondrial biogenesis"}, {"measurement": "activation of AMP kinase", "setting": "AMPKinase", "value": "activates AMPkinase"}, {"measurement": "activation of AMP kinase", "setting": "AMPKinase; [5]", "value": "activation of AMP KINASE"}, {"measurement": "mitochondrial DNA content", "setting": "HepG2 cells [2]", "value": "increases the DNA content of mitochondria"}, {"measurement": "mitochondrial DNA content", "setting": "HepG2 cells [2]; [5]", "value": "increase of mitochondrial DNA content"}, {"measurement": "hepatic gluconeogenesis (intracellular glucose production)", "setting": "HepG2 cells [3]", "value": "reduces hepatic gluconeogenesis"}, {"measurement": "hepatic gluconeogenesis (intracellular glucose production)", "setting": "HepG2 cells [3]; [5]", "value": "reduction of hepatic gluconeogenesis"}, {"measurement": "fat oxidation", "setting": "HepG2 cells [4]", "value": "stimulates oxidation of fat"}, {"measurement": "fat oxidation", "setting": "HepG2 cells [4]; [5]", "value": "stimulation of fat oxidation"}]}]}
